Values joined by “and” are separate entries in the source; they are usually repeats but may differ in a detail not shown here. Equal values may be shown once. Read-outs that look alike come from different tables or passages of the source.
Tests used:
Type in all cases: cell-based
[1] = test system: Candida albicans ATCC 10231; assay: Antimicrobial activity, microdilution MIC, C. albicans; settings: Candida albicans, ATCC10231, 24 h, MIC90, 24 h, RPMI; read-out: MIC C. albicans ATCC 10231
Description: (§1) The antimicrobial potential of the tested agents was evaluated against two reference strains of bacteria: Staphylococcus aureus ATCC 25923 and Escherichia coli K12, two reference strains of pathogenic yeasts, Candida albicans ATCC10231 and Candida glabrata DSMZ11226, as well as 20 strains of clinical isolates of S. aureus collected from patients with skin and soft tissue infections (n = 8) and strains derived from subclinical bovine mastitis milk samples (n = 12). Four of these strains, two isolated from human infections and two isolated from bovine mastitis, were classified as MRSA (Methicillin-resistant Staphylococcus aureus). All of them were mecA positive and their methicillin resistance was confirmed with the disc diffusion assay. The remaining 16 strains were MSSA (Methicillin-sensitive Staphylococcus aureus). The assays were performed using a serial, two-fold dilution method in 96-well microtiter plates under conditions recommended by the Clinical and Laboratory Standards Institute (CLSI, Pittsburgh, PA, USA). The aim of this procedure was the determination of the MIC parameter (Minimum Inhibitory Concentration)—the minimum concentration of a tested agent capable to inhibit the growth of a specified strain of microorganism. The agents were solubilized in deionized, sterile water to a final concentration of […]. Subsequently, solutions were mixed (1:1 (v/v)) with 2 × concentrated liquid medium, Mueller-Hinton Broth 2—cation adjusted (MHB2) for evaluation of antibacterial activity and RPMI in the case of evaluation of the antifungal activity. […] Subsequently, the solutions were mixed with MHB2 or RPMI medium to get the final concentration of 8.192 mg/mL (8192 µg/mL). In the next step, the serial, two-fold dilutions of the tested agents (over the range of concentrations from 8192 to 8 µg/mL for reference strains of bacteria and yeasts and from 512 to 1.0 µg/mL for clinical isolates of S. aureus) were prepared in 96-well microtitration plates in the final volume of 100 μL of the appropriate medium.
(§2) The pure cultures of yeast strains were grown on the Sabouraud Dextrose Agar (SDA) for 18–24 h at 37 °C. Suspensions of the microorganisms were prepared by taking one loop of pure culture into sterile water and adjusting optical density to 0.1 at 660 nm and further 50-fold dilution in RPMI 1640 medium resulting in cells concentration of approximate 2 × 10^4 CFU/mL. One hundred μL of that suspension was inoculated to the wells of the microtitration plate containing appropriate dilutions of the agents. The positive growth control of each strain (both bacteria and yeasts) was performed in the wells without the tested substances. The negative control containing only the media was included in each assay. Microtiter plates were incubated at 37 °C for 24 h. Following the incubation period, determination of the MIC values of the tested agents was carried out by measuring the absorbance at 531 nm using a Victor^3 microplate reader (Perkin Elmer, Inc., Waltham, MA, USA). The lowest concentration of the agent causing inhibition of growth equal to or higher than 90% (MIC90) of growth control was taken as the MIC value. Each test was repeated three times.

[2] = test system: S. aureus clinical isolates; assay: Antistaphylococcal activity, microdilution MIC, clinical isolates; settings: Staphylococcus aureus
Description: as §1
The pure bacterial cultures of (both the reference and clinical strains) were grown on the Mueller-Hinton Agar (MHA) for 18–24 h at 37 °C. A small amount of the biomass of the culture of each strain of microorganisms was suspended in the sterile PBS (phosphate buffered saline, pH 7.4 at 25 °C, purchased from Sigma) solution to get an optical density OD600 = 0.13 (equal to the cells concentration approximately 1 × 10^8 CFU/mL). The obtained suspensions of the cells were next diluted 1:100 (v/v) in the MHB2 medium. One hundred µL of the cells’ suspension was finally loaded into the wells of plates prepared in advance, which contained 100 µL of two-fold dilutions of the tested agents (the final concentration of the bacterial cells in all wells was approximately 5 × 10^5 CFU/mL).
as §2, with “times. […]” for “times.”

[3] = test system: Candida glabrata DSMZ 11226; assay: Antimicrobial activity, microdilution MIC, C. glabrata; settings: Nakaseomyces glabratus, DSMZ11226, 24 h, MIC90, 24 h, RPMI; read-out: MIC C. glabrata DSMZ 11226
Description: as §1, §2

[4] = 20 clinical isolates, typical value, read-out: MIC against S. aureus clinical isolates, in general
[5] = isolate 1, human infection, MSSA, read-out: MIC S. aureus isolate 1
[6] = isolate 2, human infection, MSSA, read-out: MIC S. aureus isolate 2
[7] = isolate 3, human infection, MSSA, read-out: MIC S. aureus isolate 3
[8] = isolate 4, human infection, MSSA, read-out: MIC S. aureus isolate 4
[9] = isolate 5, human infection, MSSA, read-out: MIC S. aureus isolate 5
[10] = isolate 6, human infection, MSSA, read-out: MIC S. aureus isolate 6
[11] = isolate 7, human infection, MRSA, read-out: MIC S. aureus isolate 7
[12] = isolate 8, human infection, MRSA, read-out: MIC S. aureus isolate 8
[13] = isolate 9, bovine mastitis, MSSA, read-out: MIC S. aureus isolate 9
[14] = isolate 10, bovine mastitis, MSSA, read-out: MIC S. aureus isolate 10
[15] = isolate 11, bovine mastitis, MSSA, read-out: MIC S. aureus isolate 11
[16] = isolate 12, bovine mastitis, MSSA, read-out: MIC S. aureus isolate 12
[17] = isolate 13, bovine mastitis, MSSA, read-out: MIC S. aureus isolate 13
[18] = isolate 14, bovine mastitis, MSSA, read-out: MIC S. aureus isolate 14
[19] = isolate 15, bovine mastitis, MSSA, read-out: MIC S. aureus isolate 15
[20] = isolate 16, bovine mastitis, MSSA, read-out: MIC S. aureus isolate 16
[21] = isolate 17, bovine mastitis, MSSA, read-out: MIC S. aureus isolate 17
[22] = isolate 18, bovine mastitis, MSSA, read-out: MIC S. aureus isolate 18
[23] = isolate 19, bovine mastitis, MRSA, read-out: MIC S. aureus isolate 19
[24] = isolate 20, bovine mastitis, MRSA, read-out: MIC S. aureus isolate 20

Row | SMILES | MIC [1] | MIC [2, 4] [µg/mL] | MIC [2, 5] | MIC [2, 6] | MIC [2, 7] | MIC [2, 8] | MIC [2, 9] | MIC [2, 10] | MIC [2, 11] | MIC [2, 12] | MIC [2, 13] | MIC [2, 14] | MIC [2, 15] | MIC [2, 16] | MIC [2, 17] | MIC [2, 18] | MIC [2, 19] | MIC [2, 20] | MIC [2, 21] | MIC [2, 22] | other results
1 | CCCCCCCCCC[N+](C)(C)C1COC2C1OCC2[N+](C)(C)CCCCCCCCCC [QAS 10, N,N’-(1,4:3,6-Dianhydro-2,5-dideoxy-L-iditol-2,5-diyl)-bis(N,N-dimethyl-N-decylammonium) Ditrifluoromethanesulfonate] | 32 µg/mL and 40 µM | 8 | 8 µg/mL and 10 µM | 8 µg/mL and 10 µM | 4 µg/mL and 5 µM | 8 µg/mL and 10 µM | 8 µg/mL and 10 µM | 8 µg/mL and 10 µM | 4 µg/mL and 5 µM | 8 µg/mL and 10 µM | 8 µg/mL and 10 µM | 8 µg/mL and 10 µM | 8 µg/mL and 10 µM | 8 µg/mL and 10 µM | 8 µg/mL and 10 µM | 4 µg/mL and 5 µM | 8 µg/mL and 10 µM | 8 µg/mL and 10 µM | 8 µg/mL and 10 µM | 8 µg/mL and 10 µM | MIC [2, 23]: 8 µg/mL and 10 µM; MIC [2, 24]: 8 µg/mL and 10 µM; MIC ([2]; more susceptible strains among 20 isolates, read-out: MIC of more susceptible S. aureus clinical strains): 4 µg/mL; MIC [3]: 16 µg/mL and 20 µM
2 | CCCCCCCC[N+](C)(C)C1COC2C1OCC2[N+](C)(C)CCCCCCCC (centres unmarked) [QAS 9] | 1020 µg/mL and 1410 µM | 64 | 64 µg/mL and 88 µM | 64 µg/mL and 88 µM | 64 µg/mL and 88 µM | 128 µg/mL and 176 µM | 64 µg/mL and 88 µM | 64 µg/mL and 88 µM | 64 µg/mL and 88 µM | 64 µg/mL and 88 µM | 64 µg/mL and 88 µM | 64 µg/mL and 88 µM | 64 µg/mL and 88 µM | 64 µg/mL and 88 µM | 64 µg/mL and 88 µM | 64 µg/mL and 88 µM | 64 µg/mL and 88 µM | 64 µg/mL and 88 µM | 64 µg/mL and 88 µM | 64 µg/mL and 88 µM | MIC [2, 23]: 64 µg/mL and 88 µM; MIC [2, 24]: 64 µg/mL and 88 µM; MIC [3]: 1020 µg/mL and 1410 µM
